The term IC50 denotes the concentration that gives 50% inhibition. Read a low IC50 as greater potency in that assay.

Our source for the IC50 and Ratio IC50 values is ChEMBL document CHEMBL3132856, “Novel pyrazolo[1,5-a]pyridines as PI3K inhibitors: variation of the central linker group” (Medchemcomm, 2014).

In test [1] the target is T1, Phosphatidylinositol 4,5-bisphosphate 3-kinase catalytic subunit delta isoform (Homo sapiens, UniProt O00329).
T1 sequence (O00329 whole entry): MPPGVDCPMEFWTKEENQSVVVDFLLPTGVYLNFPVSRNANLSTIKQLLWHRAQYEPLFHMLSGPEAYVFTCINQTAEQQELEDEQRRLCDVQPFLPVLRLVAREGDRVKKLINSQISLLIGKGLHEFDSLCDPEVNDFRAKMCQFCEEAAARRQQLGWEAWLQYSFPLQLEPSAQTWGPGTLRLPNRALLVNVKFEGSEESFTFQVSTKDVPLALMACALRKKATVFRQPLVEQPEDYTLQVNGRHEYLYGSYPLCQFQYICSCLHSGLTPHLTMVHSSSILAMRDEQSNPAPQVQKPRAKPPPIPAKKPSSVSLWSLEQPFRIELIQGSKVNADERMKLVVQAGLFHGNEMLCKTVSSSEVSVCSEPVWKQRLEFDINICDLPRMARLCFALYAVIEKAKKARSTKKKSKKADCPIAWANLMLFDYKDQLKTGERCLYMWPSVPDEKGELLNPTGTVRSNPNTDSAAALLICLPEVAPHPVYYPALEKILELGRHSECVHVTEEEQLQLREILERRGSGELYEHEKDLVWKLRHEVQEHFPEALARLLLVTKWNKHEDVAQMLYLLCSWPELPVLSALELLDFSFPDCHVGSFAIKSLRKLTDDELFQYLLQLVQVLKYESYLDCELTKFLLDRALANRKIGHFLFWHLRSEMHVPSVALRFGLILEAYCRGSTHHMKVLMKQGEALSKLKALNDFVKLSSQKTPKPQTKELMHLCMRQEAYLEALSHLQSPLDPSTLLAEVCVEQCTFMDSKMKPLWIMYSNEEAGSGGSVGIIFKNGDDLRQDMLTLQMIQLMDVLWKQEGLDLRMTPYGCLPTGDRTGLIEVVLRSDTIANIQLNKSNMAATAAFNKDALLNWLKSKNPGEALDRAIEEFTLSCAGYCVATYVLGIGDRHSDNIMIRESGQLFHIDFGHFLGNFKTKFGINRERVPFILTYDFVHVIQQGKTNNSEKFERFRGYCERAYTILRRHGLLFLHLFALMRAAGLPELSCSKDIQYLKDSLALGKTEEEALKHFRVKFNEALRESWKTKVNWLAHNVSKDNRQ
The test is described as follows: Inhibition of PI3Kdelta (unknown origin).

The target of test [2] is Phosphatidylinositol 4,5-bisphosphate 3-kinase catalytic subunit alpha isoform (Homo sapiens, UniProt P42336). Kind of test: Inhibition of PI3Kalpha (unknown origin).
Phosphatidylinositol 4,5-bisphosphate 3-kinase catalytic subunit alpha isoform, sequence (P42336 whole entry, canonical isoform): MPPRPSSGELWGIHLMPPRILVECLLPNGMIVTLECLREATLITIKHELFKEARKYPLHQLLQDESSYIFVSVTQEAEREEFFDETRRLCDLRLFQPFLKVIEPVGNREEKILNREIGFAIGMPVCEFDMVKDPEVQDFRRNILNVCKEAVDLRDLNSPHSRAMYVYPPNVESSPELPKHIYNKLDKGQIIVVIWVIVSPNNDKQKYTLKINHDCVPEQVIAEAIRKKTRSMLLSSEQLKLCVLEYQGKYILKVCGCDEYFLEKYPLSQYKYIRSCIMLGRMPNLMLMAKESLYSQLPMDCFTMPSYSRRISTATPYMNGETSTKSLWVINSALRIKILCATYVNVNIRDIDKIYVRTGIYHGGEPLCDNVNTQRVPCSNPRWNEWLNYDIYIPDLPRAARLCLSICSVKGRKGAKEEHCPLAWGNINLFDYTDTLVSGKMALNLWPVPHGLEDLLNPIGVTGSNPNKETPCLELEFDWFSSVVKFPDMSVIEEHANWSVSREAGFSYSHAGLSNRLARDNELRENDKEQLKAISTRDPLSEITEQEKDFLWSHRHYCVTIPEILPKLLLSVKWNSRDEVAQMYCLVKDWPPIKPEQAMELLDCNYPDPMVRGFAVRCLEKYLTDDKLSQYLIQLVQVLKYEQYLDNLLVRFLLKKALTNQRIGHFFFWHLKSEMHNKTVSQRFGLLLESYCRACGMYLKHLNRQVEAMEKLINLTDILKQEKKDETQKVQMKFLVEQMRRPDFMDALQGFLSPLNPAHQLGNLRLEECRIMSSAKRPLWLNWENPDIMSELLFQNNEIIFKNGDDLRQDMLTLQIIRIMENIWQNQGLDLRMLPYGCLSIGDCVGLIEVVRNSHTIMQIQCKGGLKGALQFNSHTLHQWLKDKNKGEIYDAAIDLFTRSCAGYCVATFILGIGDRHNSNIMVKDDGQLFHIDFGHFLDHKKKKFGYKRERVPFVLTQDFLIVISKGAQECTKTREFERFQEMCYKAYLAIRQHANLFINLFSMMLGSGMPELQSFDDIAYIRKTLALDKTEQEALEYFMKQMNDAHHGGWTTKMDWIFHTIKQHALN
Test [3] deals with Phosphatidylinositol 4,5-bisphosphate 3-kinase catalytic subunit beta isoform (Homo sapiens, UniProt P42338). The test is described as follows: Inhibition of PI3Kbeta (unknown origin).
Phosphatidylinositol 4,5-bisphosphate 3-kinase catalytic subunit beta isoform, sequence (P42338 whole entry, canonical isoform): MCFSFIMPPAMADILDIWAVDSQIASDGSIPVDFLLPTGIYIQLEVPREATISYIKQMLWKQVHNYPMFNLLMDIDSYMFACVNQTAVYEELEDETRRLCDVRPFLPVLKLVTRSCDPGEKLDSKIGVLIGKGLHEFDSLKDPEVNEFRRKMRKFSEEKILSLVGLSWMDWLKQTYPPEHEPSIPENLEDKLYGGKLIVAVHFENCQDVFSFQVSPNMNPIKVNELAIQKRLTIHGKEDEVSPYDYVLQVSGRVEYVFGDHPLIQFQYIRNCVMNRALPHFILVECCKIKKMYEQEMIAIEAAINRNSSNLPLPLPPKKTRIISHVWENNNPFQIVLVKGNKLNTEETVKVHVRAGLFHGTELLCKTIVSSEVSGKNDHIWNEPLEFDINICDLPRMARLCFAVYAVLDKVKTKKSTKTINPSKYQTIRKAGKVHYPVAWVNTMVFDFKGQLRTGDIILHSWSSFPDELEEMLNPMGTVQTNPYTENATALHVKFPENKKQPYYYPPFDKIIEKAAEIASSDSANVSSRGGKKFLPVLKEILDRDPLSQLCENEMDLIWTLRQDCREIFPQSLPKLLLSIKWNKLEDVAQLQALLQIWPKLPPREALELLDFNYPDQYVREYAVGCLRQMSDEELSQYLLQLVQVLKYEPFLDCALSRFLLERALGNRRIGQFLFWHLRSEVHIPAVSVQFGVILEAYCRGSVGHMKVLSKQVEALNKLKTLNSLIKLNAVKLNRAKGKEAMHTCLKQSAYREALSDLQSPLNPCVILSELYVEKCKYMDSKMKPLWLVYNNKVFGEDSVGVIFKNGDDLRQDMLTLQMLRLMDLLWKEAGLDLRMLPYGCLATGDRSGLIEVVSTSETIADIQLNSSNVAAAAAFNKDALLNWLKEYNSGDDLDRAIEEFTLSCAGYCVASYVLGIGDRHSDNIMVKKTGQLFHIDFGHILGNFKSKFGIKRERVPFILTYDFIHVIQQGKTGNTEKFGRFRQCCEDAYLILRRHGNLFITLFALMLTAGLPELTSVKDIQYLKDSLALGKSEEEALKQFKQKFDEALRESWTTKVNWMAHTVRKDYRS
The species named for test [4] is Homo sapiens. Kind of test: Selectivity ratio of IC50 for PI3Kbeta (unknown origin) to IC50 for PI3Kalpha (unknown origin).
The species named for test [5] is Homo sapiens. Kind of test: Selectivity ratio of IC50 for PI3Kalpha (unknown origin) to IC50 for PI3Kdelta (unknown origin).
The species named for test [6] is Homo sapiens. The test is described as follows: Selectivity ratio of IC50 for PI3Kdelta (unknown origin) to IC50 for PI3Kalpha (unknown origin).

Take `Cc1ccc([N+](=O)[O-])cc1S(=O)(=O)Nc1nc(-c2cnn3ccc(Br)cc23)cs1`: the results for the IC50 in test [1], in test [2] and in test [3] were above 1000 nM, 1260 nM and above 1000 nM, respectively.

In the case of `N#Cc1cc(S(=O)(=O)c2nc(-c3cnn4ccc(Br)cc34)cs2)ccc1F`, the IC50 in test [1] was 150 nM; in test [2], 170 nM; in test [3], above 1000 nM.

Regarding `Cc1ccc([N+](=O)[O-])cc1-c1nc(-c2cnn3ccc(Br)cc23)cs1`, the IC50 in test [1], in test [2] and in test [3] was above 1000 nM in each case.

Consider `O=[N+]([O-])c1cccc(S(=O)(=O)c2nc(-c3cnn4ccc(Br)cc34)cs2)c1`, for which the Ratio IC50 in the test filed under Homo sapiens [4] was below 10. This compound also came in with an IC50 in test [2] of 630 nM.

Regarding `Cc1ccc([N+](=O)[O-])cc1S(=O)(=O)N1CCCN(Cc2cnn3ccc(C#N)cc23)CC1`, the IC50 in test [1], in test [2] and in test [3] was above 1000 nM each time.

As for `Cc1ccc([N+](=O)[O-])cc1S(=O)(=O)N1CCN(Cc2cnn3ccc(C#N)cc23)CC1`, the IC50 in test [1], in test [2] and in test [3] was above 1000 nM throughout.

Take `Cc1ccc([N+](=O)[O-])cc1C(=O)NC1CCN(Cc2cnn3ccc(C#N)cc23)CC1`: the IC50 in test [1], in test [2] and in test [3] was above 1000 nM in each case.

Turning to `N#Cc1cc(S(=O)(=O)c2nc(-c3cnn4ccc(Br)cc34)cs2)ccc1NCCN1CCOCC1`, the IC50 in test [1] is 240 nM; in test [2], 2130 nM; in test [3] it was above 1000 nM. In addition, the Ratio IC50 in the test listed under Homo sapiens [5] was determined as 9.

On to `Cc1ccc([N+](=O)[O-])cc1S(=O)(=O)N1CCC(c2cnn3ccc(Br)cc23)C1` (centres undefined), for which the IC50 is above 1000 nM in test [1], 3000 nM in test [2] and above 1000 nM in test [3].

In the case of `Cc1ccc([N+](=O)[O-])cc1C(=O)N1CCC(c2cnn3ccc(Br)cc23)CC1`, the IC50 in test [1], in test [2] and in test [3] was above 1000 nM throughout.

Regarding `CN(C)CCN(C)c1ccc(C#N)cc1S(=O)(=O)c1nc(-c2cnn3ccc(Br)cc23)cs1`, the IC50 worked out at 2000 nM in test [1], 370 nM in test [2] and 3560 nM in test [3].

Turning to `Cc1ccc([N+](=O)[O-])cc1S(=O)(=O)NC1CN(Cc2cnn3ccc(C#N)cc23)C1`, the IC50 in test [1], in test [2] and in test [3] was above 1000 nM throughout.

For the compound `Cc1ccc([N+](=O)[O-])cc1S(=O)(=O)NC1CCN(Cc2cnn3ccc(C#N)cc23)CC1`, the IC50 in test [1], in test [2] and in test [3] was above 1000 nM each time.

In the case of `Cc1ccc([N+](=O)[O-])cc1S(=O)(=O)C/C=C/c1cnn2ccc(Br)cc12`, the IC50 was 3350 nM in test [1], 140 nM in test [2] and above 1000 nM in test [3].

For the compound `Cc1ccc([N+](=O)[O-])cc1C(=O)N1CCN(Cc2cnn3ccc(C#N)cc23)CC1`, the IC50 in test [1], in test [2] and in test [3] was above 1000 nM throughout.

On to `N#Cc1ccc(F)c([S+]([O-])c2nc(-c3cnn4ccc(Br)cc34)cs2)c1` (centres undefined), for which the IC50 was 200 nM in test [1], 300 nM in test [2] and above 1000 nM in test [3].

In the case of `Cc1ccc([N+](=O)[O-])cc1S(=O)(=O)N(C)c1nc(-c2cnn3ccc(Br)cc23)cs1`, the IC50 is 1550 nM in test [1], above 1000 nM in test [2] and above 1000 nM in test [3].

Consider `Cc1ccc([N+](=O)[O-])cc1S(=O)(=O)N[C@@H]1CCCN(Cc2cnn3ccc(C#N)cc23)C1`, for which the IC50 in test [1], in test [2] and in test [3] was above 1000 nM in each case.

Turning to `Cc1ccc([N+](=O)[O-])cc1CS(=O)(=O)c1nc(-c2cnn3ccc(Br)cc23)cs1`, the 50% inhibitory concentration (IC50) in test [1], in test [2] and in test [3] was above 1000 nM each time.

Regarding `CN(C)CCN(C)c1ccc(C#N)cc1[S+]([O-])c1nc(-c2cnn3ccc(Br)cc23)cs1` (centres undefined), the Ratio IC50 in the test listed under Homo sapiens [6] amounted to 5; in the test listed under Homo sapiens [5] it was 16. Besides, the results for the IC50 in test [1], in test [2] and in test [3] were 250 nM, 4030 nM and 4340 nM, respectively.

In the case of `Cc1ccc([N+](=O)[O-])cc1S(=O)(=O)N1CCCC(c2cnn3ccc(Br)cc23)C1` (centres undefined), the IC50 is above 1000 nM in test [1], 590 nM in test [2] and above 1000 nM in test [3].

Regarding `Cc1ccc([N+](=O)[O-])cc1C(=O)N[C@H]1CCN(Cc2cnn3ccc(C#N)cc23)C1`, the IC50 in test [1], in test [2] and in test [3] was above 1000 nM in each case.

In the case of `Cc1ccc([N+](=O)[O-])cc1S(=O)(=O)N1CCC(c2cnn3ccc(Br)cc23)CC1`, the 50% inhibitory concentration (IC50) in test [1], in test [2] and in test [3] was above 1000 nM throughout.

Take `Cc1ccc([N+](=O)[O-])cc1CSc1nc(-c2cnn3ccc(Br)cc23)cs1`: the half-inhibitory concentration (IC50) in test [1], in test [2] and in test [3] was above 1000 nM in each case.

Regarding `Cc1ccccc1[S+]([O-])c1nc(-c2cnn3ccc(Br)cc23)cs1` (centres undefined), the values for the IC50 in test [1], in test [2] and in test [3] were above 1000 nM, 1280 nM and above 1000 nM, respectively.

Take `CN(C)CCN(C)c1ccc(S(=O)(=O)c2nc(-c3cnn4ccc(Br)cc34)cs2)cc1C#N`: the IC50 in test [1] was 640 nM; in test [2] it was 2470 nM; in test [3], above 1000 nM. The Ratio IC50 in the test filed under Homo sapiens [5] is 4.

In the case of `O=[N+]([O-])c1cccc([S+]([O-])c2nc(-c3cnn4ccc(Br)cc34)cs2)c1` (centres undefined), the Ratio IC50 in the test filed under Homo sapiens [4] is below 10. Besides, the concentration for half-maximal inhibition (IC50) is 320 nM in test [1], 740 nM in test [2] and 4420 nM in test [3].

On to `Cc1ccc([N+](=O)[O-])cc1C(=O)N[C@@H]1CCCN(Cc2cnn3ccc(C#N)cc23)C1`, for which the IC50 in test [1], in test [2] and in test [3] was above 1000 nM each time.

For the compound `Cc1ccc([N+](=O)[O-])cc1Nc1nc(-c2cnn3ccc(Br)cc23)cs1`, the IC50 in test [1], in test [2] and in test [3] was above 1000 nM throughout.

On to `N#Cc1ccc(F)c(S(=O)(=O)c2nc(-c3cnn4ccc(Br)cc34)cs2)c1`, for which the IC50 in test [1] is 440 nM; in test [2], 720 nM; in test [3] it was above 1000 nM.

On to `Cc1ccc([N+](=O)[O-])cc1S(=O)(=O)N[C@@H]1CCN(Cc2cnn3ccc(C#N)cc23)C1`, for which the IC50 in test [1], in test [2] and in test [3] was above 1000 nM each time.

In the case of `Cc1ccc([N+](=O)[O-])cc1C(=O)N[C@@H]1CCN(Cc2cnn3ccc(C#N)cc23)C1`, the IC50 in test [1], in test [2] and in test [3] was above 1000 nM each time.

Consider `O=[N+]([O-])c1cccc(Sc2nc(-c3cnn4ccc(Br)cc34)cs2)c1`, for which the IC50 in test [1], in test [2] and in test [3] was above 1000 nM throughout.

`Cc1ccc([N+](=O)[O-])cc1S(=O)(=O)/N=c1/scc(-c2cnn3ccc(Br)cc23)n1C`: the IC50 in test [1], in test [2] and in test [3] was above 1000 nM each time.

As to `Cc1ccc([N+](=O)[O-])cc1S(=O)(=O)N[C@H]1CCCN(Cc2cnn3ccc(C#N)cc23)C1`, the IC50 in test [1], in test [2] and in test [3] was above 1000 nM throughout.

For `Cc1ccc([N+](=O)[O-])cc1C(=O)NC1CN(Cc2cnn3ccc(C#N)cc23)C1`, the IC50 in test [1], in test [2] and in test [3] was above 1000 nM in each case.

Consider `Cc1ccc([N+](=O)[O-])cc1Cc1nc(-c2cnn3ccc(Br)cc23)cs1`, for which the IC50 in test [1], in test [2] and in test [3] was above 1000 nM throughout.

With `Cc1ccc([N+](=O)[O-])cc1C(=O)N[C@H]1CCCN(Cc2cnn3ccc(C#N)cc23)C1`, the IC50 in test [1], in test [2] and in test [3] was above 1000 nM in each case.

As to `Cc1ccc([N+](=O)[O-])cc1S(=O)(=O)N[C@H]1CCN(Cc2cnn3ccc(C#N)cc23)C1`, the IC50 in test [1], in test [2] and in test [3] was above 1000 nM throughout.

Consider `Cc1ccc([N+](=O)[O-])cc1S(=O)(=O)Cc1nc(-c2cnn3ccc(Br)cc23)cs1`, for which the IC50 is 90 nM in test [1], 240 nM in test [2] and 140 nM in test [3].
